The test system of one data set is M. abscessus 1513. Nature of the data set: MIC/MBC by microbroth dilution (MH or 7H9 broth). The data set is classed as cell-based, M. abscessus subsp. abscessus. The note with it: Mycobacteroides abscessus, 1513. For orientation: In broth dilution the organism is exposed to a series of concentrations in liquid medium.
The subject of data set [1] is M. massiliense CIP 108297. The data set can be described thus: MIC, resazurin microtiter assay. The data set is classed as cell-based. The note with it: for MIC: Mycobacteroides abscessus, CIP108297, Mueller Hinton II, read-out: MIC M. massiliense CIP 108297.
The test system of the next data set is M. xenopi WT. The data set can be described thus: MIC, resazurin microtiter assay. The data set is classed as cell-based. Particulars: Mueller Hinton II; for MIC: Mycobacterium xenopi, read-out: MIC M. xenopi WT. For orientation: Resazurin is reduced to fluorescent resorufin, in cell work by metabolically active cells.
Another data set has as its system M. bolletii ATCC 14472. Nature of the data set: MIC, resazurin microtiter assay. Particulars: for MIC: Mycobacteroides abscessus, ATCC14472, Mueller Hinton II, read-out: MIC M. bolletii ATCC 14472; for Selectivity Index (TD50/MIC) M. bolletii: TD50 in THP-1 cells. The data set is classed as cell-based.
A further data set deals with mycobacteria. The data set can be described thus: organism not typed. Format: cell-based. The note with it: lowest concentration reducing CFU by 90% relative to the inoculum; strain not stated; read-out: MBC90.
The subject of data set [2] is M. tuberculosis H37Rv mc^26206. Nature of the data set: microbe, parasite or virus in culture. The data set is classed as cell-based. The note with it: for Selectivity Index (TD50/MIC) M. tb H37Rv: TD50 in THP-1 cells.
For a further data set, the system named is M. smegmatis mc^2155. The data set can be described thus: MIC, resazurin microtiter assay. The data set is classed as cell-based. The note with it: for MIC: Mycolicibacterium smegmatis, MC^2155, 7H9-ADC-0.05% Tween 80, read-out: MIC M. smeg. mc^2155.
The next data set deals with M. abscessus ATCC 19977. Nature of the data set: MIC, resazurin microtiter assay. Format: cell-based. The note with it: Mueller Hinton II; for MIC: Mycobacteroides abscessus, ATCC19977, read-out: MIC M. abscessus ATCC 19977.
Data set [3] concerns M. massiliense strain 1513. Nature of the data set: Metabolic labeling and mycolic acid analysis. The note with it: 4x and 10x MIC, 16 hr, [1,2-14C]acetate labeling, TLC.
Description: Cultures of M. massiliense 1513 grown to mid log-phase in Mueller-Hinton II broth were incubated with different concentrations of inhibitors for 16 hr at 37° C. with shaking. 0.5 μCi/mL [1,2-^14C]acetic acid (specific activity, 52 Ci/mol, PerkinElmer Inc.) was added at the same time as the inhibitors. Total lipids and cell wall-bound mycolic acid methyl esters were prepared from treated and untreated cells and analyzed by TLC as described in Grzegorzewicz et al, Nature Chemical Biology, 2012, 8:334+341.
A further data set deals with M. abscessus 103. The data set can be described thus: MIC/MBC by microbroth dilution (MH or 7H9 broth). The data set is classed as cell-based, M. abscessus subsp. bolletii. The note with it: Mycobacteroides abscessus, 103.
Another data set has as its system S. aureus ATCC25923. The data set can be described thus: MIC, resazurin microtiter assay. Format: cell-based. The note with it: Staphylococcus aureus, ATCC25923; Mueller Hinton II; read-out: MIC S. aureus ATCC25923.
The subject of the next data set is M. avium 104. The data set can be described thus: MIC, resazurin microtiter assay. Format: cell-based. The note with it: Mueller Hinton II; for MIC: Mycobacterium avium, 104, read-out: MIC M. avium 104.
The subject of another data set is M. abscessus DCI #21. Nature of the data set: MIC, resazurin microtiter assay. The note with it: for MIC: Mycobacteroides abscessus, read-out: MIC M. abscessus DCI #21; for Selectivity Index (TD50/MIC) M. abscessus DCI #21: TD50 in THP-1 cells. Format: cell-based.
The next data set deals with P. aeruginosa PAO-1. Nature of the data set: MIC, resazurin microtiter assay. Format: cell-based, Pseudomonas aeruginosa. Particulars: Mueller Hinton II; for MIC: Pseudomonas aeruginosa, PAO1, read-out: MIC P. aeruginosa PAO-1.
A further data set deals with M. chelonae ATCC 35752. The data set can be described thus: MIC, resazurin microtiter assay. Format: cell-based. Particulars: for MIC: Mycobacteroides chelonae, ATCC35752, Mueller Hinton II, read-out: MIC M. chelonae ATCC 35752; for Selectivity index (TD50/MIC): TD50 in THP-1 cells.
Another data set concerns THP-1 cells. The data set can be described thus: Cytotoxicity assay, THP-1 cell viability (CellTiter-Glo). Format: cell-based, human. The note with it: 3 days. How it is done: The cytotoxicity of compounds was determined by measuring THP-1 cell viability after 3 days in the presence of test compounds. Compounds were prepared as 10-point serial dilutions in DMSO. The highest concentration of compound tested was 50 μM where compounds were soluble in DMSO at 10 mM. THP-1 cells were cultured in complete RPMI and differentiated into macrophage-like cells using 80 nM PMA overnight at 37° C., 5% CO2. Cells were inoculated into assay plates and cultured for 24 h before compound dilutions were added to a final DMSO concentration of 0.5%. Each run included staurosporine as a control. Assay plates were incubated for 3 days at 37° C., 5% CO2, growth was measured using the CellTiter-Glo® Luminescent Cell Viability Assay (Promega) which uses ATP as an indicator of cell viability. Relative luminescent units (RLU) were measured using a Biotek Synergy 4 plate reader. The dose response curve was fitted using the Levenberg-Marquardt algorithm.
(In ATP-based viability assays light output follows the ATP content of the culture.)

The next data set relates to M. massiliense CRM 0019. The data set can be described thus: MIC, resazurin microtiter assay. The data set is classed as cell-based. Particulars: for MIC: Mycobacteroides abscessus, CRM0019, Mueller Hinton II, read-out: MIC M. massiliense CRM 0019; for Selectivity Index (TD50/MIC) M. Massiliense CRM0019: TD50 in THP-1 cells.
The next data set deals with M. intracellulare 1956. Nature of the data set: MIC, resazurin microtiter assay. Particulars: Mueller Hinton II; for MIC: read-out: MIC M. avium Intracellulare 1956. The data set is classed as cell-based.
Where [4] appears, read: read-out: MIC M. abscessus 1513, 7H9 Broth.
Where [5] appears, read: read-out: MIC M. abscessus 1513, MH Broth.
Where [6] appears, read: read-out: MIC M. abscessus 103, 7H9 Broth.
Where [7] appears, read: read-out: MIC M. abscessus 103, MH Broth.

In brackets after ≈: the same amount, converted by molar mass. Where two headings read alike, the source gives them in different places.

Take `C[C@@H]1[C@H]2C[C@@H](C[C@H]1NC(=O)c1cc3ccccc3[nH]1)C2(C)C` [Compound 16, N-((1R,2R,3R,5S)-2,6,6-trimethylbicyclo[3.1.1]heptan-3-yl)-1H-indole-2-carboxamide]: the MIC was more than 64 µg/mL in the data set on M. abscessus 1513 (setting [4]); more than 64 µg/mL in the data set with M. abscessus 1513 (setting [5]); 0.06 µg/mL (≈ 0.202 µM) in data set [1]; 0.5 to 1 µg/mL (≈ 1.69 to 3.37 µM) in the data set on M. xenopi WT; 0.12 µg/mL (≈ 0.405 µM) with M. bolletii ATCC 14472; 0.05 µg/mL (≈ 0.169 µM) in data set [2] (Mycobacterium tuberculosis, H37RV, read-out: MIC M. tb H37 Rv (mc2-6206)). Further, the MIC with M. smegmatis mc^2155 is 0.78 µg/mL (≈ 2.63 µM); in the data set on M. abscessus ATCC 19977 it was 0.12 µg/mL (≈ 0.405 µM); in the data set with M. abscessus 103 (setting [6]) it was more than 64 µg/mL; with M. abscessus 103 (setting [7]) it was 16 µg/mL (≈ 54 µM); in the data set on S. aureus ATCC25923, 40 µg/mL (≈ 135 µM); in the data set with M. avium 104, 8 µg/mL (≈ 27 µM). Moreover, the MIC in the data set on M. abscessus DCI #21 (Mueller Hinton II) is 0.5 µg/mL (≈ 1.69 µM); with P. aeruginosa PAO-1, more than 160 µg/mL; in the data set with M. chelonae ATCC 35752 it was less than 0.06 µg/mL; in the data set on M. massiliense CRM 0019, 0.06 µg/mL (≈ 0.202 µM); in the data set on M. intracellulare 1956 it was 8 µg/mL (≈ 27 µM). Besides, the “Selectivity Index (TD50/MIC) M. bolletii” value with M. bolletii ATCC 14472 is given as 92. For the same molecule, the MBC in the data set on mycobacteria is 0.06 µg/mL (≈ 0.202 µM). Moreover, the “Selectivity Index (TD50/MIC) M. tb H37Rv” value in data set [2] is 226. For the same molecule, the “TMM build-up and mycolic acid transfer onto arabinogalactan and TDM” value in [3] is recorded as “concentration-dependent build-up of TMM”. In addition, the “Selectivity Index (TD50/MIC) M. abscessus DCI #21” value in the data set with M. abscessus DCI #21 is 22.6. Further, in the data set with P. aeruginosa PAO-1, the “MIC P. aeruginosa PAO-1” value is “inactive”. For the same molecule, in the data set on M. chelonae ATCC 35752, the “Selectivity index (TD50/MIC)” value is on record as more than 188. Besides, the TD50 in the data set on THP-1 cells was found to be 11.3 µg/mL. Also, the “Selectivity Index (TD50/MIC) M. Massiliense CRM0019” value in the data set on M. massiliense CRM 0019 came to 188.

Consider `Cc1cc(C)c2cc(C(=O)NC3CCC(C)CC3)[nH]c2c1` (stereo not shown) [Compound 30, N-4-methylcyclohexyl-4,6-dimethyl-1H-indole-2-carboxamide], for which the “MIC M. massiliense CIP 108297” value in [1] (Mueller Hinton II) was not above 0.06 µg/mL. In addition, the “MIC M. xenopi WT” value against M. xenopi WT is 0.5 to 1 µg/mL. The “MIC M. bolletii ATCC 14472” value against M. bolletii ATCC 14472 (Mueller Hinton II) was not above 0.06 µg/mL. Further, the MBC with mycobacteria came to 0.03 µg/mL (≈ 0.105 µM). Further, the “MIC M. smeg. mc^2155” value against M. smegmatis mc^2155 (7H9-ADC-0.05% Tween 80) is more than 20 µg/mL. The “MIC M. abscessus ATCC 19977” value against M. abscessus ATCC 19977 was not above 0.06 µg/mL. For the same molecule, the MIC with S. aureus ATCC25923 and in the data set with P. aeruginosa PAO-1 was more than 160 µg/mL each time. Also, the “MIC M. avium 104” value in the data set with M. avium 104 is more than 32 µg/mL. Moreover, the “MIC M. abscessus DCI #21” value against M. abscessus DCI #21 (Mueller Hinton II) is not above 0.06 µg/mL. Also, the “MIC P. aeruginosa PAO-1” value against P. aeruginosa PAO-1 was “inactive”. Further, the “MIC M. chelonae ATCC 35752” value against M. chelonae ATCC 35752 (Mueller Hinton II) was not above 0.06 µg/mL. For the same molecule, the “MIC M. massiliense CRM 0019” value in the data set on M. massiliense CRM 0019 (Mueller Hinton II) was not above 0.06 µg/mL. Besides, the “MIC M. avium Intracellulare 1956” value in the data set with M. intracellulare 1956 is more than 32 µg/mL.

Regarding `Cc1cc(C)c2cc(C(=O)N[C@@H]3C[C@@H]4C[C@H]([C@H]3C)C4(C)C)[nH]c2c1` [Compound 31, N-((1R,2R,3R,5S)-2,6,6-trimethylbicyclo[3.1.1]heptan-3-yl)-4,6-dimethyl-1H-indole-2-carboxamide], the MIC with M. abscessus 1513 (setting [4]) was more than 64 µg/mL; in the data set with M. abscessus 1513 (setting [5]), more than 64 µg/mL; in [1] it was 0.125 µg/mL (≈ 0.385 µM); with M. xenopi WT, 0.25 to 1 µg/mL (≈ 0.77 to 3.08 µM); with M. bolletii ATCC 14472, 0.125 µg/mL (≈ 0.385 µM); with M. smegmatis mc^2155, 1.25 to 2.5 µg/mL (≈ 3.85 to 7.7 µM). Also, the MIC was 0.125 µg/mL (≈ 0.385 µM) with M. abscessus ATCC 19977; more than 64 µg/mL in the data set on M. abscessus 103 (setting [6]); 16 µg/mL (≈ 49.3 µM) in the data set with M. abscessus 103 (setting [7]); more than 160 µg/mL in the data set on S. aureus ATCC25923; 2 µg/mL (≈ 6.16 µM) in the data set on M. avium 104; 0.125 µg/mL (≈ 0.385 µM) in the data set on M. abscessus DCI #21 (Mueller Hinton II). For the same molecule, the MIC in the data set with P. aeruginosa PAO-1 was more than 160 µg/mL; in the data set with M. chelonae ATCC 35752 it was 0.125 µg/mL (≈ 0.385 µM); in the data set on M. massiliense CRM 0019, 0.125 µg/mL (≈ 0.385 µM); in the data set on M. intracellulare 1956, 2 µg/mL (≈ 6.16 µM). For the same molecule, the “Selectivity Index (TD50/MIC) M. bolletii” value with M. bolletii ATCC 14472 is more than 130. Further, in data set [2], the “Selectivity Index (TD50/MIC) M. tb H37Rv” value was more than 830. The “TMM build-up and mycolic acid transfer onto arabinogalactan and TDM” value in data set [3] is “concentration-dependent build-up of TMM”. Also, the “Selectivity Index (TD50/MIC) M. abscessus DCI #21” value in the data set on M. abscessus DCI #21 is recorded as more than 130. The “MIC P. aeruginosa PAO-1” value against P. aeruginosa PAO-1 is “inactive”. Moreover, the “Selectivity index (TD50/MIC)” value in the data set with M. chelonae ATCC 35752 is recorded as more than 130. Moreover, the TD50 with THP-1 cells was more than 16.2 µg/mL. Besides, the “Selectivity Index (TD50/MIC) M. Massiliense CRM0019” value in the data set on M. massiliense CRM 0019 is reported as more than 130.

Values taken from US10383848B2, “Indole-based therapeutics” (Creighton University, priority 2016, dated 2019).
